We go through one compound from publication PMC11407783 (Nature cell biology, 2023).

Molecules are shown by their SMILES.

As a reminder, the IC50 is the point on the concentration scale where inhibition reaches its midpoint.

The target of the assay is KDM3B (Homo sapiens, UniProt Q7LBC6). Kind of assay: competitive inhibition of purified recombinant KDM3B. Format: biochemical.
Chain of KDM3B (Q7LBC6 whole entry): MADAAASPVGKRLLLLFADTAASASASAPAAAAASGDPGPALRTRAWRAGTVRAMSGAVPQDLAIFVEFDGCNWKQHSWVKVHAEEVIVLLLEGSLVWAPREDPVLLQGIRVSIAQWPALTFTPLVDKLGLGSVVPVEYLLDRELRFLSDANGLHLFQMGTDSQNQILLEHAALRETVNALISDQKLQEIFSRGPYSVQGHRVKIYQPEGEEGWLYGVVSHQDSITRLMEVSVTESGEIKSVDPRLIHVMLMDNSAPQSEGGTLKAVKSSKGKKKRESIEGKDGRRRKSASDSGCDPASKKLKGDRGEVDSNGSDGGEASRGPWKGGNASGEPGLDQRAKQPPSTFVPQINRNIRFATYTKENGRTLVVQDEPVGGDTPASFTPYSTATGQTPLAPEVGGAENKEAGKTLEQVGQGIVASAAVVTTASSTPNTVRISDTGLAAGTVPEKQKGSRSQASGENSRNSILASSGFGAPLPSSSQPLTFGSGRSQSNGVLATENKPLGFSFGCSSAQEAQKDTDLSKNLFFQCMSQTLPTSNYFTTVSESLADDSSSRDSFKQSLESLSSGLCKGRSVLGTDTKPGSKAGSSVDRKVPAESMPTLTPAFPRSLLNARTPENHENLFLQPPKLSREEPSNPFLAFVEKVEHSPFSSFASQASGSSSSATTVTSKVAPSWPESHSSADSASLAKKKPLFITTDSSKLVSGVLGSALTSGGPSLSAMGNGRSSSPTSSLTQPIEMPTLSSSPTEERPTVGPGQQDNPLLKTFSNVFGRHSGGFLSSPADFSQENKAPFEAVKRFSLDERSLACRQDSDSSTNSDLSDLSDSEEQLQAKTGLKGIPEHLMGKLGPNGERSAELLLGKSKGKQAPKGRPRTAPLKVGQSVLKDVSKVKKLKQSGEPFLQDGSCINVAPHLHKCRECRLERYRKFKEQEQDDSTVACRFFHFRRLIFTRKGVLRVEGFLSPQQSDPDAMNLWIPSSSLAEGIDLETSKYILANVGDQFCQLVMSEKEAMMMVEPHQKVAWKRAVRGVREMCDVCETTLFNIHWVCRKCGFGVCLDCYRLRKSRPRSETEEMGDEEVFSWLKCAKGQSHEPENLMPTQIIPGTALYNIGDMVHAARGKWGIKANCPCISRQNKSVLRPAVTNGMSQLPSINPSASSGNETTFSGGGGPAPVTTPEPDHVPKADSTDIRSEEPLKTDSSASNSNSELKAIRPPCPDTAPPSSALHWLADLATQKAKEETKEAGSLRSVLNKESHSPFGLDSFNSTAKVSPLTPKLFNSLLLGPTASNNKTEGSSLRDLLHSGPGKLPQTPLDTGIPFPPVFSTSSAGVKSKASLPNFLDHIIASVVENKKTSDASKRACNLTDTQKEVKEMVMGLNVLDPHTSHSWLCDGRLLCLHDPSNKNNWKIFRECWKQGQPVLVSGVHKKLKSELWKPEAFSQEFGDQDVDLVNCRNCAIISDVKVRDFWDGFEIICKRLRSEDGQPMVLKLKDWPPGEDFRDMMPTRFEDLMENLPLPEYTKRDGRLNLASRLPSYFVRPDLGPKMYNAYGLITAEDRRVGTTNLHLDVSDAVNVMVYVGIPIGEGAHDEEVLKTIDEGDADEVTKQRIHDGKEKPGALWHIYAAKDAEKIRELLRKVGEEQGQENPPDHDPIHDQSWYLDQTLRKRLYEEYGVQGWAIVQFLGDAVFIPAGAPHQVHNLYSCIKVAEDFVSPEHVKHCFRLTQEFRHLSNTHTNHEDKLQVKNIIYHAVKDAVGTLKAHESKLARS

`O=C(O)CCC(O)C(=O)O` (stereo not shown) [R-2HG]: the half-inhibitory concentration (IC50) was approximately 2460 µM.
